Experimental findings from patent US7238716B2, “Alkanoic acid derivatives process for their production and use thereof” (Takeda Pharmaceuticals Company Limited, priority 2000, dated 2007) are described below.

Broadly, the melting point is the temperature, or range, at which the solid turns liquid.

Structures are written as SMILES.

Turning to `Cc1oc(-c2ccccc2)nc1COc1ccc(COc2ncccc2CC(=O)[O-])cc1.[Li+]`, the melting point lay in the range of 207 to 209 °C.

As for `Cc1oc(-c2ccccc2)nc1COc1ccc(COc2ncccc2CC(=O)[O-])cc1.[K+]`, the melting point fell in the range of 157 to 159 °C. Turning to `CCOC(=O)CCc1cccc(OCc2ccc(OCc3nc(-c4ccccc4)oc3C)cc2)c1` [Example 2, ethyl 3-[3-[4-[(5-methyl-2-phenyl-4-oxazolyl)methoxy]benzyloxy]phenyl]propionate], the melting point lay within 90 to 91 °C.

`Cc1oc(-c2ccccc2)nc1COc1ccc(COc2cccc(CCC(=O)O)c2)cc1` [Example 3, 3-[3-[4-[(5-methyl-2-phenyl-4-oxazolyl)methoxy]benzyloxy]phenyl]propionic acid] showed a melting point of 157 to 158 °C. The compound `CCOc1ccc(OCc2ccc(OCc3nc(-c4ccccc4)oc3C)cc2)cc1CC(=O)OC` [Example 4, methyl-2-[2-ethoxy-5-[4-[(5-methyl-2-phenyl-4-oxazolyl)methoxy]benzyloxy]phenyl]acetate] registered a melting point of 82 to 83 °C. As for `CCOc1ccc(OCc2ccc(OCc3nc(-c4ccccc4)oc3C)cc2)cc1CC(=O)O` [Example 5, 2-[2-ethoxy-5-[4-[(5-methyl-2-phenyl-4-oxazolyl)methoxy]benzyloxy]phenyl]acetic acid], the melting point was 122 to 123 °C.

Compound `COC(=O)Cc1ccc(OCc2ccc(OCc3nc(-c4ccccc4)oc3C)cc2)cc1` [Example 8, methyl 2-[4-[4-[(5-methyl-2-phenyl-4-oxazolyl)methoxy]benzyloxy]phenyl]acetate] registered a melting point of 93 to 94 °C. The same measure for `Cc1oc(-c2ccccc2)nc1COc1ccc(COc2ccc(CC(=O)O)cc2)cc1` [Example 9, 2-[4-[4-[(5-methyl-2-phenyl-4-oxazolyl)methoxy]benzyloxy]phenyl]acetic acid]: 166 to 167 °C. In turn, `Cc1oc(-c2ccccc2)nc1COc1ccc(COc2ccccc2CCC(=O)O)cc1` [Example 13, 3-[2-[4-[(5-methyl-2-phenyl-4-oxazolyl)methoxy]benzyloxy]phenyl]propionic acid] came in with a melting point of 98 to 99 °C. In turn, `COC(=O)Cc1cc(C)ccc1OCc1ccc(OCc2nc(-c3ccccc3)oc2C)cc1` [Example 14, methyl 2-[5-methyl-2-[4-[(5-methyl-2-phenyl-4-oxazolyl)methoxy]benzyloxy]phenyl]acetate] showed a melting point of 80 to 81 °C. The same measure for `Cc1oc(-c2ccccc2)nc1COc1ccc(COc2ccc(O)cc2CC(=O)O)cc1` [Example 16, 2-[5-hydroxy-2-[4-[(5-methyl-2-phenyl-4-oxazolyl)methoxy]benzyloxy]phenyl]acetic acid]: 194 to 195 °C; for `COC(=O)Cc1cc(Br)ccc1OCc1ccc(OCc2nc(-c3ccccc3)oc2C)cc1` [Example 19, methyl 2-[5-bromo-2-[4-[(5-methyl-2-phenyl-4-oxazolyl)methoxy]benzyloxy]phenyl]acetate]: 100 to 101 °C; for `Cc1oc(-c2ccccc2)nc1COc1ccc(COc2ccc(Br)cc2CC(=O)O)cc1` [Example 20, 2-[5-bromo-2-[4-[(5-methyl-2-phenyl-4-oxazolyl)methoxy]benzyloxy]phenyl]acetic acid]: 162 to 163 °C. The same measure for `COC(=O)Cc1cc(-c2ccccc2)ccc1OCc1ccc(OCc2nc(-c3ccccc3)oc2C)cc1` [Example 21, methyl 2-[2-[4-[(5-methyl-2-phenyl-4-oxazolyl)methoxy]benzyloxy]-5-phenylphenyl]acetate]: 111 to 112 °C; for `Cc1oc(-c2ccccc2)nc1COc1ccc(COc2ccc(-c3ccccc3)cc2CC(=O)O)cc1` [Example 22, 2-[2-[4-[(5-methyl-2-phenyl-4-oxazolyl)methoxy]benzyloxy]-5-phenylphenyl]acetic acid]: 102 to 103 °C; for `COC(=O)Cc1cc(OC)ccc1OCc1ccc(OCc2nc(-c3ccccc3)oc2C)cc1` [Example 23, methyl 2-[5-methoxy-2-[4-[(5-methyl-2-phenyl-4-oxazolyl)methoxy]benzyloxy]phenyl]acetate]: 160 to 161 °C.

`Cc1oc(-c2ccccc2)nc1COc1ccc(COc2ccc(OCc3ccccc3)cc2CC(=O)O)cc1` [Example 27, 2-[5-benzyloxy-2-[4-[(5-methyl-2-phenyl-4-oxazolyl)methoxy]benzyloxy]phenyl]acetic acid] returned a melting point of 140 to 141 °C.

Turning to `Cc1oc(-c2ccccc2)nc1COc1cccc(COc2ccccc2CC(=O)O)c1` [Example 31, 2-[2-[3-[(5-methyl-2-phenyl-4-oxazolyl)methoxy]benzyloxy]phenyl]acetic acid], the melting point lay within 117 to 118 °C.

As to `CCOc1ccc(OCc2cccc(OCc3nc(-c4ccccc4)oc3C)c2)cc1CCC(=O)O` [Example 33, 3-[2-ethoxy-5-[3-[(5-methyl-2-phenyl-4-oxazolyl)methoxy]benzyloxy]phenyl]propionic acid], the melting point was 136 to 137 °C. The result for `Cc1oc(-c2ccccc2)nc1COc1ccccc1COc1cccc(CC(=O)O)c1` [Example 34, 2-[3-[2-[(5-methyl-2-phenyl-4-oxazolyl)methoxy]benzyloxy]phenyl]acetic acid] reads 104 to 105 °C. The same measure for `CCOc1ccc(OCc2ccccc2OCc2nc(-c3ccccc3)oc2C)cc1CCC(=O)O` [Example 35, 3-[2-ethoxy-5-[2-[(5-methyl-2-phenyl-4-oxazolyl)methoxy]benzyloxy]phenyl]propionic acid]: 146 to 147 °C; for `Cc1oc(-c2ccccc2)nc1COc1ccc(COc2cncc(CC(=O)O)c2)cc1` [Example 38, 2-[5-[4-[(5-methyl-2-phenyl-4-oxazolyl)methoxy]benzyloxy]-3-pyridyl]acetic acid]: 139 to 140 °C.

`Cc1oc(-c2ccccc2)nc1COc1ccc(COc2ccc3ccccc3c2CC(=O)O)cc1` [Example 39, 2-[2-[4-[(5-methyl-2-phenyl-4-oxazolyl)methoxy]benzyloxy]-1-naphthyl]acetic acid]: the melting point is 187 to 188 °C.

Turning to `COC(=O)Cc1ccccc1OCc1cncc(OCc2nc(-c3ccccc3)oc2C)c1` [Example 42, methyl 2-[2-[[5-[(5-methyl-2-phenyl-4-oxazolyl)methoxy]-3-pyridyl]methoxy]phenyl]acetate], the melting point is 77 to 78 °C. As to `Cc1oc(-c2ccccc2)nc1COc1cncc(COc2ccccc2CC(=O)O)c1` [Example 43, 2-[2-[[5-[(5-methyl-2-phenyl-4-oxazolyl)methoxy]-3-pyridyl]methoxy]phenyl]acetic acid], the melting point was 207 to 208 °C. Consider `CCOC(=O)CCc1ccc(OCc2ccc(OCc3nc(-c4ccccc4)oc3C)cc2)cc1` [Example 44, ethyl 3-[4-[4-[(5-methyl-2-phenyl-4-oxazolyl)methoxy]benzyloxy]phenyl]propionate], for which the melting point is 105 to 106 °C. `Cc1oc(-c2ccccc2)nc1COc1ccc(COc2ccc(CCC(=O)O)cc2)cc1` [Example 45, 3-[4-[4-[(5-methyl-2-phenyl-4-oxazolyl)methoxy]benzyloxy]phenyl]propionic acid] displayed a melting point of 177 to 178 °C. On to `CCOC(=O)CCc1c(OCc2ccc(OCc3nc(-c4ccccc4)oc3C)cc2)ccc2ccccc12` [Example 46, ethyl 3-[2-[4-[(5-methyl-2-phenyl-4-oxazolyl)methoxy]benzyloxy]-1-naphthyl]propionate], for which the melting point is 86 to 87 °C. `Cc1oc(-c2ccccc2)nc1COc1ccc(COc2ccc3ccccc3c2CCC(=O)O)cc1` [Example 47, 3-[2-[4-[(5-methyl-2-phenyl-4-oxazolyl)methoxy]benzyloxy]-1-naphthyl]propionic acid]: the melting point lay in the range of 161 to 162 °C. `COc1ccc(COc2ccccc2CC(=O)O)cc1OCc1nc(-c2ccccc2)oc1C` [Example 49, 2-[2-[4-methoxy-3-[(5-methyl-2-phenyl-4-oxazolyl)methoxy]benzyloxy]phenyl]acetic acid] yielded a melting point of 154 to 155 °C. Compound `Cc1oc(-c2ccccc2)nc1COc1ccc(COC(=O)Cc2cccc(OCc3ccc(OCc4nc(-c5ccccc5)oc4C)cc3)c2)cc1` [Example 53, 4-[(5-methyl-2-phenyl-4-oxazolyl)methoxy]benzyl 2-[3-[4-[(5-methyl-2-phenyl-4-oxazolyl)methoxy]benzyloxy]phenyl]acetate] came in with a melting point of 90 to 91 °C. As to `CCOC(=O)C=Cc1c(OCc2ccc(OCc3nc(-c4ccccc4)oc3C)cc2)ccc2ccccc12` [Example 54, ethyl 3-(2-(4-((5-methyl-2-phenyl-4-oxazolyl)methoxy)benzyloxy)-1-naphthyl)-2-propenoate], the melting point lay within 73 to 74 °C. The result for `Cc1oc(-c2ccccc2)nc1COc1ccccc1COc1ccccc1CC(=O)O` [Example 56, 2-[2-[2-[(5-methyl-2-phenyl-4-oxazolyl)methoxy]benzyloxy]phenyl]acetic acid] reads 145 to 146 °C; that for `COC(=O)Cc1ccccc1OCc1ccc(N(Cc2nc(-c3ccccc3)oc2C)C(=O)OC(C)(C)C)cc1` [Example 59, methyl 2-[2-[4-[(t-butoxycarbonyl)[(5-methyl-2-phenyl-4-oxazolyl)methyl]amino]benzyloxy]phenyl]acetate], 85 to 86 °C. The result for `Cc1oc(-c2ccccc2)nc1COc1cccc(COc2cccc(CC(=O)O)c2)n1` [Example 64, 2-[3-[[6-[(5-methyl-2-phenyl-4-oxazolyl)methoxy]-2-pyridyl]methoxy]phenyl]acetic acid] reads 97 to 98 °C; that for `CCOC(=O)CCc1ccc(OCc2ccc(OCc3nc(-c4ccccc4)oc3C)cc2)cc1OCC` [Example 65, ethyl 3-[2-ethoxy-4-[4-[(5-methyl-2-phenyl-4-oxazolyl)methoxy]benzyloxy]phenyl]propionate], 64 to 65 °C. The compound `Cc1oc(-c2ccccc2)nc1COc1ccc(CSc2ccc(CCC(=O)O)cc2)cc1` [Example 67, 3-[4-[[4-[(5-methyl-2-phenyl-4-oxazolyl)methoxy]benzyl]sulfanyl]phenyl]propionic acid] returned a melting point of 157 to 158 °C.
